Consider ten compounds from PubChem BioAssay AID1963834 (Molecular Pharmacology Branch, DTP, NCI, 2024).

The assay has as its system 873145-292-R-J1-PDC complex spheroid viability. Description: Anticancer human tumor 873145-292-R-J1-PDC patient-derived renal clear cell carcinoma cell line growth inhibition [POLQ]. The note with it: for viability, T/C: stronger effect = lower value. As for the experimental part:
Multicellular complex tumor spheroid response to Polymerase (POL) inhibitors (novobiocin, ART-558, RP6685) in combination with a variety of drugs and investigational agents in selected tumor cell lines
The POL inhibitors (novobiocin, ART-558, and RP6685) were evaluated both individually and in combination with standard of care and investigational anticancer small molecules within a complex spheroid model of solid tumors. . Complex spheroids include a stromal component modeled by human endothelial cells (HUVEC) and fibroblasts modeled by human mesenchymal stem cells (MSCs). The concentration ranges selected for each drug and investigational agent were based upon clinically achievable concentrations if the clinical Cmax of the agent was known.
Compounds. The drugs and investigational agents: novobiocin (NSC847541), ART-558 (NSC835418), RP-6685 (NSC848927), peposertib (NSC802822), ceralasertib (NSC780249), elimusertib (NSC800525), camonsertib (NSC841442), AZD-1390 (NSC803789), olaparib (NSC753686), talazoparib (NSC767125), rucaparib (NSC756644), sotorasib (NSC818433), MRTX-1133 (NSC836407), SN-38 (NSC673596), topotecan (NSC609699), epotoside (NSC141540), doxorubicin (NSC123127), gemcitabine (NSC613327), 5-fluorouracil (NSC19893), paclitaxel (NSC125973), vemurafenib (NSC761431), MSA-2 (NSC828583), SN-011 (NSC837082), adavosertib (NSC754352), prexasertib (NSC758257), carboplatin (NSC241240) and oxaliplatin (NSC266046), were obtained from the National Cancer Institute (NCI) Developmental Therapeutics Program Chemical Repository (21). The FDA-approved anticancer drug set is available from the Developmental Therapeutics Program at https://dtp.cancer.gov/organization/dscb/obtaining/. […] The stock solutions were prepared in dimethyl sulfoxide (DMSO, Sigma-Aldrich, St. Louis, MO, cat. D2650), except for the platinum compounds which were prepared in saline (Quality Biological, Gaithersburg, MD, cat. 114-055-101), at 800-fold the tested concentration and stored at -70 degrees C prior to their use. All drugs and investigational agents were tested over a range starting from a high concentration at or near the clinical Cmax and decreasing in half-log increments. If the clinical Cmax for an agent had not been determined, the highest concentration tested was 10 microM, except for SN-38, which was tested at a high concentration of 1 microM.
Cell Culture. All cells were maintained in an incubator at 37 degrees C and 5% CO2 with 95% humidity. The PDC lines were cultured according to standard operating procedures established by the NCI PDMR (https://pdmr.cancer.gov). Table 3 of the manuscript, lists the cell lines along with the number of the three cell types plated to form the mct-spheroids and media for tumor cell growth. After thawing, all PDC lines, except 997537-175-T-J1-PDC and 415267-285-R-J2-PDC, were cultured in Matrigel-coated flasks prepared with a working solution of 1X Ham's F-12 nutrient mix, without supplementation (Thermo Fisher Scientific, cat. 11765054), 100 U/mL penicillin-streptomycin (Thermo Fisher Scientific, cat. 15140122), and 2.5% Matrigel (Corning Inc., Corning, NY, cat. 354248) for the first three passages. The two PDC lines 997537-175-T-J1-PDC and 415267-285-R-J2-PDC were cultured on uncoated flasks. The 857933-349-R-J2-PDC line was cultured in 6C/Colon 1B media containing advanced DMEM/F-12 (Thermo Fisher Scientific, cat. 12634028), 10 mM HEPES (Thermo Fisher Scientific, cat. 15630080), 1X GlutaMAX supplement (Thermo Fisher Scientific, cat. 35050061), 0.1 mg/mL primocin (InvivoGen, San Diego, CA, cat. ant-pm-2), 10% defined fetal bovine serum, heat inactivated (HyClone Laboratories Inc., Logan, UT, cat. SH30070.03HI), 50% L-WRN conditioned media (ATCC, cat. CRL-3276), 1.25 mM N-Acetyl-L-cysteine (Sigma-Aldrich, cat. A9165), 10 mM nicotinamide (Sigma-Aldrich, cat. N0636), 1X B-27 supplement (Thermo Fisher Scientific, cat. 17504044), 1X N-2 supplement (Thermo Fisher Scientific, cat. […]

The mark [1] stands for this setting: compound alone, run of 01/08/2024.

Values joined by “and” are separate entries in the source; they are usually repeats but may differ in a detail not shown here. Identical values can stand only once. A value given as a limit tells only on which side of the number the result lay.
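Further: spheroids exposed to compounds for 7 days before viability readout.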
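Wherever viability, T/C is given: luminescence signal used as surrogate for viable cell content.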

Regarding `COC1C(OC(N)=O)C(O)C(Oc2ccc3c(O)c(NC(=O)c4ccc(O)c(CC=C(C)C)c4)c(=O)oc3c2C)OC1(C)C` (stereo not given), the viability, T/C is, setting by setting: (compound 0.0316 µM) 93.7% [middle of 13 runs]; (compound 0.316 µM) 102% [middle of 13 runs]; (compound 1 µM) 99.8% [middle of 13 runs]; (compound 3.16 µM) 102% [middle of 13 runs]; (compound 10 µM) 98.3% [middle of 13 runs]. Further, the IC50 under setting [1] was greater than 10 µM.
Consider `COc1cc(C2c3cc4c(cc3C(OC3OC5COC(C)OC5C(O)C3O)C3COC(=O)C23)OCO4)cc(OC)c1O` (stereo not given), for which the viability, T/C runs as follows: (compound 0.0316 µM) 95.1% and 110% and 113%; (compound 0.1 µM) 94.9% and 101% and 95.3%; (compound 0.316 µM) 98.2% and 106% and 94.5%; (compound 1 µM) 95.1% and 95.9% and 102%; (compound 3.16 µM) 67% and 80.8% and 85.2%; (compound 10 µM) 56.9% and 68.2% and 66%. Further, where the note is “curve of compound”, the IC50 is greater than 10 µM.
For `COc1ccc([C@@H](O)c2cc(-c3ncnc4cc(N5CCOCC5)ccc34)c(F)cc2Cl)nn1`, the viability, T/C (compound 0.0316 µM) was 70.5% and 97.3% and 103%; the viability, T/C (compound 0.1 µM) was 85% and 91.1% and 92.7%; the viability, T/C (compound 0.316 µM) was 86.9% and 84.3% and 87%; the viability, T/C (compound 1 µM) is 66.4% and 79.4% and 67.4%; the viability, T/C (compound 3.16 µM) is 56.9% and 52.8% and 57%; the viability, T/C (compound 10 µM) is 42.3% and 49.3% and 41.6%. Also, the IC50 (curve of compound) was 5.01 µM and 7.26 µM and 5.06 µM.
Turning to `COc1cccc(OCCCN)c1-c1cc(Nc2cnc(C#N)cn2)n[nH]1`, the viability, T/C (compound 0.00316 µM) is 103% and 116% and 101%; the viability, T/C (compound 0.01 µM) was 89.6% and 98.2% and 94.2%; the viability, T/C (compound 0.0316 µM) was 68.6% and 71.2% and 98.3%; the viability, T/C (compound 0.1 µM) is 60.8% and 74% and 71.8%; the viability, T/C (compound 0.316 µM) was 63.5% and 75.3% and 79.5%; the viability, T/C (compound 1 µM) was 72.4% and 84.5% and 73.1%. The concentration for half-maximal inhibition (IC50) (curve of compound) was greater than 1 µM.
For the compound `COc1cccc2c1C(=O)c1c(O)c3c(c(O)c1C2=O)CC(O)(C(=O)CO)CC3OC1CC(N)C(O)C(C)O1` (stereo not given), the viability, T/C runs as follows: (compound 0.0316 µM) 79.5% and 101% and 88.3%; (compound 0.1 µM) 68.8% and 87.2% and 90.1%; (compound 0.316 µM) 70.1% and 92.2% and 85.7%; (compound 1 µM) 68.8% and 84.2% and 79.3%; (compound 3.16 µM) 3.4% and 5.11% and 4.22%; (compound 10 µM) 2.7% and 3.08% and 3.02%. The 50% inhibitory concentration (IC50) (curve of compound) was 1.39 µM and 1.65 µM and 1.57 µM.
In the case of `Cc1cccc(N(C)C(=O)C2C(O)CCN2c2nc(C)cc(C(F)(F)F)c2C#N)c1` (stereo not given), the viability, T/C (compound 0.0316 µM) is 93.4% [middle of 13 runs]; the viability, T/C (compound 0.1 µM) was 97.4% [middle of 13 runs]; the viability, T/C (compound 0.316 µM) is 98.9% [middle of 13 runs]; the viability, T/C (compound 1 µM) is 99.9% [middle of 13 runs]; the viability, T/C (compound 3.16 µM) was 99.1% [middle of 13 runs]; the viability, T/C (compound 10 µM) was 95.5% [middle of 11 runs]. Besides, the IC50 runs as follows: under setting [1], greater than 10 µM; (compound alone, run of 01/19/2024) greater than 10 µM.
With `Cn1ncnc1[C@H]1c2n[nH]c(=O)c3cc(F)cc(c23)N[C@@H]1c1ccc(F)cc1`, the viability, T/C reads like this: (compound 0.000316 µM) 99.5% and 108% and 99.7%; (compound 0.001 µM) 102% and 92.8% and 98%; (compound 0.00316 µM) 91.2% and 96.3% and 103%; (compound 0.01 µM) 107% and 97.5% and 102%; (compound 0.0316 µM) 108% and 102% and 94.4%; (compound 0.1 µM) 101% and 97.9% and 88.9%. Further, the half-inhibitory concentration (IC50) (curve of compound) was greater than 0.1 µM.
With `Nc1ccn(C2OC(CO)C(O)C2(F)F)c(=O)n1` (stereo not given), the viability, T/C is, setting by setting: (compound 0.0316 µM) 64.3% and 74.6% and 56.8%; (compound 0.1 µM) 55.4% and 57.4% and 46.8%; (compound 0.316 µM) 50.4% and 59.5% and 57.8%; (compound 1 µM) 58.3% and 53% and 55.6%; (compound 3.16 µM) 55.6% and 60% and 51.4%; (compound 10 µM) 49.7% and 56.7% and 41.6%. Further, for the setting “curve of compound”, the half-inhibitory concentration (IC50) is > 10 µM and 1.86 µM.
For `O=C(c1cc(Cc2n[nH]c(=O)c3ccccc23)ccc1F)N1CCN(C(=O)C2CC2)CC1`, the viability, T/C was 99.8% and 99.5% and 107% (compound 0.0316 µM); 96.2% and 91.1% and 106% (compound 0.1 µM); 91.9% and 115% and 107% (compound 0.316 µM); 104% and 97.4% (2×) (compound 1 µM); 98.6% and 112% and 104% (compound 3.16 µM); 91.7% and 95.1% and 102% (compound 10 µM). The IC50 (curve of compound) is greater than 10 µM.
Take `O=c1[nH]cc(F)c(=O)[nH]1`: the viability, T/C is, setting by setting: (compound 0.0316 µM) 90.7% and 101% and 99.7%; (compound 0.1 µM) 98.1% and 101% and 92.8%; (compound 0.316 µM) 93.2% and 92.1% and 94.4%; (compound 1 µM) 99.2% and 101% and 92%; (compound 3.16 µM) 107% and 102% and 96.4%; (compound 10 µM) 99.7% and 106% and 94.3%. In addition, the concentration for half-maximal inhibition (IC50) (curve of compound) was greater than 10 µM.

Broadly, the viability, T/C is the result in the treated group divided by that in the control group, in per cent. As usually defined, the IC50 is the concentration at which inhibition is half-maximal.
